These results are taken from patent US20250041278A1, “TLR8 AGONIST FOR MODULATING IMMUNE RESPONSE” (The Children's Medical Center Corporation, priority 2021, published 2025).

Holding throughout (format): cell-based
The subject of test [1] is murine bone marrow-derived dendritic cells. In words: mTNF and mIL-6 ELISA in murine bone-marrow-derived dendritic cells. The following applies: murine BMDCs, 18 hours. The protocol:
(§1) FIGS. 4A-4D. PVP-179 activates human macrophages and dendritic cells. FIGS. 4A-4B: Murine mononuclear cells were isolated from bone marrow and induced differentiation into dendritic cells (with GM-CSF and IL-4). After 5 days of culturing, these bone-marrow-derived dendritic cells (BMDCs) were stimulated with PVP-179 or MPLA for 18 hours at indicated concentrations. The supernatants were analyzed via ELISA where each dot in the graph represents the mean production of mTNF (FIG. 4A) and mIL-6 (FIG. 4B). N=6 for PVP-179, N=3 for MPLA. Two-way Anova was performed to determine statistical significance. The comparisons shown are compared to control group (0 M PVP-179). FIGS. 4C-4D: PBMCs were isolated from blood of adult human donors. CD14+ monocytes were specifically isolated from the PBMCs and were then cultured in 10% autologous plasma and induced to differentiate into macrophages with M-CSF (FIG. 4C), or dendritic cells with GM-CSF and IL-4 (FIG. 4D). After 5 days, cells were harvested from each differentiated cell type (macrophages: Mφ; dendritic cells: MoDCs) and a 96-well plate was setup with 100,000 cells/well. Cells were then stimulated with indicated concentrations of PVP-179 or R848 (33 μM) or LPS (100 ng/mL). After 20-24 hours of incubation, supernatants were harvested and applied to TNF ELISA. N=2 donors.
For orientation: An ELISA detects its analyte on a solid surface through an enzyme-linked reagent.

Test [2] deals with human monocyte derived dendritic cells. In words: TNF ELISA in human monocyte derived dendritic cells (MoDCs). The following applies: 20-24 hours. As for the experimental part: as §1
For test [3], the target named is T1, hTLR7 (Homo sapiens, UniProt Q9NYK1).
T1 construct: expressed in transfected cells; host or cells: HEK reporter cells
T1 sequence (Q9NYK1 27-1049): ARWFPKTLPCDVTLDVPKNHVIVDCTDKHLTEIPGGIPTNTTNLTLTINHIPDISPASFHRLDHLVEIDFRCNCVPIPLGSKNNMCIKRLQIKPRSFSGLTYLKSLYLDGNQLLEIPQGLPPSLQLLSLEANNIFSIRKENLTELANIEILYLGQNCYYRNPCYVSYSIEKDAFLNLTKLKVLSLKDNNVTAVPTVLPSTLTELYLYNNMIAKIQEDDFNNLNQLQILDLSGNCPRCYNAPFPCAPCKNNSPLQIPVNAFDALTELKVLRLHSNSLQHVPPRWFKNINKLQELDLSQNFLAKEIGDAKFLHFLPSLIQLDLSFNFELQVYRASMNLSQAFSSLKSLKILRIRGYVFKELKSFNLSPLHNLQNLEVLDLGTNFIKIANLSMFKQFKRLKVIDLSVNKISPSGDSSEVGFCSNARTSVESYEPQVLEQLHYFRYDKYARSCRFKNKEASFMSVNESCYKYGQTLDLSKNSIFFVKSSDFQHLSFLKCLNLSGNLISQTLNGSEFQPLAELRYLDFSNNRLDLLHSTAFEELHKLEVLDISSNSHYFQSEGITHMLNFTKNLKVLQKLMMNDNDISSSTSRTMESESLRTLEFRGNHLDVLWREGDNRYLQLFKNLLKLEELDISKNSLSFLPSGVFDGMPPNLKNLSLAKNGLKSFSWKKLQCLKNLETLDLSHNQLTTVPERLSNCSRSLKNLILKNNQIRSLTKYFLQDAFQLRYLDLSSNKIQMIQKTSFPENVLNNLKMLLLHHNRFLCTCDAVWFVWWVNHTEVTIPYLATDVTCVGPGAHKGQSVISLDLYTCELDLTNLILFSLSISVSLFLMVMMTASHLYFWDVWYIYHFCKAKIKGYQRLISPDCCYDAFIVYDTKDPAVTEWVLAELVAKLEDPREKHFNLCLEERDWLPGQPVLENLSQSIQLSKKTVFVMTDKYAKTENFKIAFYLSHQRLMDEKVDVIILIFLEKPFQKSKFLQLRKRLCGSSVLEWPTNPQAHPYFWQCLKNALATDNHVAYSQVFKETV
Nature of the test: HEK hTLR7 NF-κB SEAP reporter assay. The following applies: even at higher concentrations. As for the experimental part: (§2) FIGS. 3A-3E. PVP-179 is a TLR8 agonist. FIG. 3A: PVP-179 was sent to InvivoGen for PRR ligand screening service. Various cells lines were utilized to screen for PVP-179-induced ([…]) activation of TLRs, NOD1/2, RIG-I/MDA-5, Dectin-1 or Mincle receptor. The heat-map depicts percentage activity compared to the positive control for each receptor. FIG. 3B: PVP-179 induced activity (% activity compared to the positive control: CL075 at 1 μg/mL) in HEK-293 cells specifically expressing hTLR8. In brief, these cells have an NF-κB/AP-1-inducible secreted embryonic alkaline phosphatase (SEAP) reporter gene which allows monitoring of signaling via TLR8. After incubation for 16-24 hours, supernatant harvested from the cells is mixed with media containing SEAP-substrate and the optical density (OD) is measured at 650 nm using a spectrophotometer. FIG. 3C: As in FIG. 3B, HEK cells specifically expressing hTLR2, hTLR7, or hTLR8, in addition to the HEK-Null cell line carrying only the reporter gene, were stimulated with the indicated concentrations of PVP-179. […] PVP-179 activity is expressed as a percentage of NF-κB induced in the cells stimulated with TNF (positive control for each cell line). […] The supernatants were harvested after 20-24 hours and SEAP production (to assess NF-κB activity) was measured using QUANTIBlue assay. […]
(In general: A reporter such as luciferase makes a cellular process visible.)

Test [4] has as its target T2, hTLR2 (Homo sapiens, UniProt O60603).
T2 construct: expressed in transfected cells; host or cells: HEK reporter cells
Nature of the test: HEK hTLR2 NF-κB SEAP reporter assay. The following applies: even at higher concentrations. As for the experimental part: as §2

T2 sequence (O60603 21-784): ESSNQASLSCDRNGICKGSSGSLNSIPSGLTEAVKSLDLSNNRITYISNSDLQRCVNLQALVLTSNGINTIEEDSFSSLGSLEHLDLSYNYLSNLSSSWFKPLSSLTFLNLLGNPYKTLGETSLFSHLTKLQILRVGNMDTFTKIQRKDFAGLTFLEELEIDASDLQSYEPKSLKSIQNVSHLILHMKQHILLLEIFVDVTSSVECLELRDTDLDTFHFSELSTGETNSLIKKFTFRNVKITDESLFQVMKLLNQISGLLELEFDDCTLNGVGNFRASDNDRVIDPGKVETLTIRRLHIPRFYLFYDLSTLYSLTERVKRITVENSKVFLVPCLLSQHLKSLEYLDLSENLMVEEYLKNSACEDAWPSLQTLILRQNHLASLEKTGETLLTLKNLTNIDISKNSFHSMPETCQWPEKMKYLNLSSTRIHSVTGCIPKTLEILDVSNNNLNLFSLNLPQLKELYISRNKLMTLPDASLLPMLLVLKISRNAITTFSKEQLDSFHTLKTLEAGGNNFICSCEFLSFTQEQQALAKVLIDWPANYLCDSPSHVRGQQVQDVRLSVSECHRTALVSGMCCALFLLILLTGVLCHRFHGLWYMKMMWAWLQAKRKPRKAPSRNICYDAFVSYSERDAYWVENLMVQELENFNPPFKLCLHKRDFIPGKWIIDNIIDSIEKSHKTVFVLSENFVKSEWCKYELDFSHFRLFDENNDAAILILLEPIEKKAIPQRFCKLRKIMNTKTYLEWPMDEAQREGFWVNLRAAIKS

Regarding `CCCCn1c(/N=C/c2nc3ccccc3n2C)nc2ccccc21` [PVP-179], the “cytokine inducing activity (mTNF, mIL-6)” value in test [1] is “minimal cytokine inducing activity”. The TNF-inducing activity result in test [2] is recorded as “concentration-dependent activity”. Besides, in test [3], the “NF-κB activity in HEK cells expressing hTLR7” value is reported as “no activity was detected”. Also, the “NF-κB activity in HEK cells expressing hTLR2” value in test [4] is on record as “no activity was detected”.
